Results reported in patent US20260028354A1, “TETRAHYDRONAPHTHALENE DERIVATIVES AS ESTROGEN RECEPTOR DEGRADERS” (REGENT OF THE UNIVERSITY OF MICHIGAN, priority 2022, published 2026).
Like-named read-outs stand apart in the source and are kept apart here.

What was measured:
CRBN/DDB1 = CRBN/DDB1 (Homo sapiens (Human), UniProt Q96SW2); type: binding; details: His tagged CRBN+DDB1, Cy5-labeled Thalidomide probe, one hour; read-out: CRBN HTRF IC50
Experimental: The binding potency was determined using HTRF assay technology (Perkin Elmer). Compounds were serially diluted in DMSO and […] volume was transferred to white 384-well plate.

ER in MCF-7 cells = ER in MCF-7 cells (Homo sapiens (Human), UniProt P03372); test: In-cell Western (ICW) ER degradation assay in MCF-7 cells; type: cell-based; details: for DC50: MCF-7, ER degradation, read-out: MCF7 DC50
ER = ER (Homo sapiens (Human), UniProt P03372); test: In-cell western blot analysis of ER for "B" compounds; type: cell-based; details: 16 hours, read-out: ICW DC50
In short: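 In-cell western: fixed cells stained with primary antibodies (2 h, RT), then anti-rabbit-680 and anti-mouse-800 secondaries (1:1000, 1 h, RT), imaged on a LI-COR plate reader. Relative ER level in treated wells expressed against untreated and DMSO-treated wells set as 100%.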

[1] = Cell growth assay (WST-8) for "B" compounds; type: cell-based; details: T47D, read-out: Cell growth Inhibition in T47D cell line IC50
In short: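 Cells seeded at 1500/well overnight, then exposed to compounds for 4 days. 10% WST-8 added for 2.5 h at 37 °C and absorbance read at 450 nm. Growth given as absorbance relative to vehicle control, from three repeats.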

[2] = MCF7, MCF-7, maximal ER degradation, 16 hrs treatment, read-out: MCF7 Dmax
[3] = MCF7, read-out: MCF7 Dmax, MCF-7, maximal ER degradation, 16 hrs treatment

Sequence of CRBN/DDB1 (Q96SW2 whole entry, species assumed): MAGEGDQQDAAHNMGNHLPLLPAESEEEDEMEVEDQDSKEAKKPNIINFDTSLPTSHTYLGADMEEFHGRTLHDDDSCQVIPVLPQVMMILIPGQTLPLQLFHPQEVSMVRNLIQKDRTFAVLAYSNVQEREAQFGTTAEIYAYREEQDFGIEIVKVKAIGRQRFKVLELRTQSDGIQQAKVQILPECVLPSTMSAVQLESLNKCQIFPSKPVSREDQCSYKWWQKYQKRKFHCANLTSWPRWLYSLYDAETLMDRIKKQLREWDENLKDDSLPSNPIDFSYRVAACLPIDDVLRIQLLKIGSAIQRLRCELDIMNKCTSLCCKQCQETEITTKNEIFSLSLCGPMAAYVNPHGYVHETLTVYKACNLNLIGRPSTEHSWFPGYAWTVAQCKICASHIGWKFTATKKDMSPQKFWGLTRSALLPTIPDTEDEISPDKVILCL
Sequence of CRBN/DDB1 (Q16531 whole entry partner, species assumed): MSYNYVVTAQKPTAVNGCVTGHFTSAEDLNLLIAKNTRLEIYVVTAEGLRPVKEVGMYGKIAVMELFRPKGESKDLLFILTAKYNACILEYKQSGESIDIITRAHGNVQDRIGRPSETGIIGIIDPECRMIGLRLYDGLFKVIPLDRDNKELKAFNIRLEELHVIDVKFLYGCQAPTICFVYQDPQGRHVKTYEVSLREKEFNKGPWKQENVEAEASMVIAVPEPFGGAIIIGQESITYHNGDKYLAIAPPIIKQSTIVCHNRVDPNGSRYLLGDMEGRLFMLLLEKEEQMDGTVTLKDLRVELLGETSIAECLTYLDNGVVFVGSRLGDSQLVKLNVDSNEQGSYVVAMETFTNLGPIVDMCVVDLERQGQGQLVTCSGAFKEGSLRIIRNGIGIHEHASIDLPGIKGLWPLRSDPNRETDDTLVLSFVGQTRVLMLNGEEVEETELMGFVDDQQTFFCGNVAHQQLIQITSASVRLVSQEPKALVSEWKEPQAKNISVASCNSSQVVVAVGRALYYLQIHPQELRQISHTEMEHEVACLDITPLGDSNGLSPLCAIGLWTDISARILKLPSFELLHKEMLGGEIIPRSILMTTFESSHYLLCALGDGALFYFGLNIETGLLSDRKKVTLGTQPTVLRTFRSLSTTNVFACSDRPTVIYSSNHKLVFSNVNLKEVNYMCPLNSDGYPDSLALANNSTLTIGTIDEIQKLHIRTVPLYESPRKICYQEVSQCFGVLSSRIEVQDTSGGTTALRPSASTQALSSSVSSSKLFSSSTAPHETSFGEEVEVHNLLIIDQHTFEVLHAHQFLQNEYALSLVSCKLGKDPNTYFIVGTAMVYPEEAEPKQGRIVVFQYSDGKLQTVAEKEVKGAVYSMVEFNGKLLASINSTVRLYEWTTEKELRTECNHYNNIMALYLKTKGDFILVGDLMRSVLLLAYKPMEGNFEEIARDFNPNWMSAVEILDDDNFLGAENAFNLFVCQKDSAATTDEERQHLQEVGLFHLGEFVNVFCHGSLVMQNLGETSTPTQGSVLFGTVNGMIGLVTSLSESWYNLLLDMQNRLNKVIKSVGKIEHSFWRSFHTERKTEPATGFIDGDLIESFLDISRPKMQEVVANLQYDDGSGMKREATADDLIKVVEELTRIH
Sequence of ER in MCF-7 cells (P03372 whole entry): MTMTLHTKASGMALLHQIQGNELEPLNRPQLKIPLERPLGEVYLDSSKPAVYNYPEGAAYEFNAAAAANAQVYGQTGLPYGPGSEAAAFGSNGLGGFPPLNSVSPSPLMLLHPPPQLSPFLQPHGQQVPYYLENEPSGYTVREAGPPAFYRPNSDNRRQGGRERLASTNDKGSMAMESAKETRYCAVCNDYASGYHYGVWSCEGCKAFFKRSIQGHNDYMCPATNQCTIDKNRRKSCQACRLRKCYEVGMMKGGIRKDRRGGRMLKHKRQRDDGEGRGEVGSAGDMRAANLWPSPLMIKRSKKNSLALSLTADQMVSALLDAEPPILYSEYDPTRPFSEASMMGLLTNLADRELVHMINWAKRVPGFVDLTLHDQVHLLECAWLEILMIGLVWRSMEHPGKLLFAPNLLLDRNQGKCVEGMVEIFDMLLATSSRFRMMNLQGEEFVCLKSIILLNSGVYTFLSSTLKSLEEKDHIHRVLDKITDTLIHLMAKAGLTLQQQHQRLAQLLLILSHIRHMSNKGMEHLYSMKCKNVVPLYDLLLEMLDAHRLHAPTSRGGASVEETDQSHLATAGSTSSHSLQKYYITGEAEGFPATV
Sequence of ER (P03372 whole entry): as above

Row | SMILES | IC50 (CRBN/DDB1) | Dmax (ER in MCF-7 cells; [2]) | DC50 (ER in MCF-7 cells; 16 hrs treatment) | Dmax (ER in MCF-7 cells; [3]) | DC50 (ER) | IC50 ([1]; T47D cell line) | IC50 [1]
1 | O=C1CC[C@H](N2Cc3cc4c(cc3C2=O)OC[C@@H]2CN(CC3CCC5(CC3)CN(c3ccc([C@@H]6c7ccc(O)cc7CC[C@@H]6c6ccccc6)cc3)C5)CCN42)C(=O)N1 (single isomer, unassigned) [Compound A63] | 500 to 5000 nM | – | – | – | – | – | –
2 | O=C1CC[C@H](N2Cc3cc4c(cc3C2=O)OC[C@@H]2CN(CC3CC5(CCN(c6ccc([C@@H]7c8ccc(O)cc8CC[C@@H]7c7ccccc7)cn6)CC5)C3)CCN42)C(=O)N1 (single isomer, unassigned) [Compound A121] | 500 to 5000 nM | > 75% | 1 to 10 nM | – | – | – | –
3 | COc1cc(N2CCC3(CC2)CC(CN2CCN4c5ccc6c(c5OC[C@H]4C2)CN([C@H]2CCC(=O)N(C)C2=O)C6=O)C3)ccc1[C@@H]1c2ccc(O)cc2CC[C@@H]1c1ccccc1 (single isomer, unassigned) [Compound A132] | 500 to 5000 nM | 50 to 75% | 1 to 10 nM | – | – | – | –
4 | O=C1CC[C@H](N2Cc3cc4c(cc3C2=O)OC[C@@H]2CN(CC3CC5(CCN(c6ccc([C@@H]7c8ccc(O)cc8CC[C@@H]7c7ccccc7)cc6F)CC5)C3)CCN42)C(=O)N1 (single isomer, unassigned) [Compound A150] | 500 to 5000 nM | 50 to 75% | 10 to 100 nM | – | – | – | –
5 | O=C1CC[C@H](N2Cc3cc4c(cc3C2=O)OC[C@@H]2CN(CC3CCC5(CC3)CN(c3ccc([C@H]6c7ccc(O)cc7CC[C@H]6c6ccccc6)cc3F)C5)CCN42)C(=O)N1 (single isomer, unassigned) [Compound A151] | 500 to 5000 nM | 25 to 50% | 10 to 100 nM | – | – | – | –
6 | O=C1CC[C@H](N2Cc3c(ccc4c3OC[C@H]3CN(CC5CCC6(CC5)CN(c5ccc([C@@H]7c8ccc(O)cc8CC[C@@H]7c7ccccc7)cc5F)C6)CCN43)C2=O)C(=O)N1 (single isomer, unassigned) [Compound A152] | 500 to 5000 nM | 50 to 75% | 1 to 10 nM | – | – | – | –
7 | O=C1CC[C@H](N2Cc3c(ccc4c3OC[C@H]3CN(CC5CCC6(CC5)CN(c5ncc([C@@H]7c8ccc(O)cc8CC[C@@H]7c7ccccc7)cn5)C6)CCN43)C2=O)C(=O)N1 (single isomer, unassigned) [Compound A156] | 50 to 500 nM | > 75% | < 1 nM | – | – | – | –
8 | O=C1CC[C@H](N2Cc3cc4c(cc3C2=O)OC[C@@H]2CN(CC3CCC5(CC3)CN(c3ncc([C@H]6c7ccc(O)cc7CC[C@H]6c6ccccc6)cn3)C5)CCN42)C(=O)N1 (single isomer, unassigned) [Compound A157] | 500 to 5000 nM | < 25% | 10 to 100 nM | – | – | – | –
9 | O=C1CC[C@H](N2Cc3cc4c(cc3C2=O)OC[C@@H]2CN(CC3CCC5(CC3)CN(c3ncc([C@@H]6c7ccc(O)cc7CC[C@@H]6c6ccccc6)cn3)C5)CCN42)C(=O)N1 (single isomer, unassigned) [Compound A158] | 500 to 5000 nM | 50 to 75% | < 1 nM | – | – | – | –
10 | O=C1CC[C@H](N2Cc3c(ccc4c3OC[C@H]3CN(CC5CCC6(CC5)CN(c5ccc([C@H]7c8ccc(O)cc8CC[C@H]7c7ccccc7)cc5F)C6)CCN43)C2=O)C(=O)N1 (single isomer, unassigned) [Compound A159] | 50 to 500 nM | 25 to 50% | 10 to 100 nM | – | – | – | –
11 | COc1cc(N2CC3(CCC(CN4CCN5c6ccc7c(c6OC[C@H]5C4)CN([C@H]4CCC(=O)NC4=O)C7=O)CC3)C2)c(F)cc1[C@@H]1c2ccc(O)cc2CC[C@@H]1c1ccccc1 (single isomer, unassigned) [Compound A163] | 50 to 500 nM | > 75% | 1 to 10 nM | – | – | – | –
12 | COc1cc(N2CC3(CCC(CN4CCN5c6cc7c(cc6OC[C@@H]5C4)C(=O)N([C@H]4CCC(=O)NC4=O)C7)CC3)C2)c(F)cc1[C@@H]1c2ccc(O)cc2CC[C@@H]1c1ccccc1 (single isomer, unassigned) [Compound A164] | 500 to 5000 nM | > 75% | 1 to 10 nM | – | – | – | –
13 | O=C1CCC(NC(=O)c2ccc(C3CCN(CC4CCN(c5ccc([C@@H]6c7ccc(O)cc7CC[C@@H]6c6ccccc6)cc5)CC4)CC3)cn2)C(=O)N1 (stereo partly drawn) [Compound A3, N-(2,6-dioxopiperidin-3-yl)-5-(1-((1-(4-((1R,2S)-6-hydroxy-2-phenyl-1,2,3,4-tetrahydro-naphthalen-1-yl)phenyl)piper-idin-4-yl)methyl)piperidin-4-yl)picolinamide] | > 5000 nM | 25 to 50% | < 1 nM | – | – | – | –
14 | O=C1CC[C@H](N2Cc3c(ccc4c3OCC43CCN(CC4CCN(c5ccc([C@@H]6c7ccc(O)cc7CC[C@@H]6c6ccccc6)cc5)CC4)CC3)C2=O)C(=O)N1 [Compound A70, (S)-3-(1′-((1-(4-((1R,2S)-6-hydroxy-2-phenyl-1,2,3,4-tetrahydronaphthalen-1-yl)-phenyl)piperidin-4-yl)methyl)-6-oxo-6,8-dihydro-2H,7H-spiro[furo[2,3-e]isoindole-3,4′-piperidin]-7-yl)piperidine-2,6-dione] | < 50 nM | – | < 1 nM | 50 to 75% | – | – | –
15 | O=C1CC[C@H](N2Cc3c(ccc4c3OCC43CCN(C[C@H]4COC5(C4)CN(c4ccc([C@@H]6c7ccc(O)cc7CC[C@@H]6c6ccccc6)cc4)C5)CC3)C2=O)C(=O)N1 [Compound A74, (S)-3-(1′-(((S)-2-(4-((1R,2S)-6-hydroxy-2-phenyl-1,2,3,4-tetrahydronaphthalen-1-yl)phenyl)-5-oxa-2-azaspiro[3,4]octan-7-yl)methyl)-6-oxo-6,8-dihydro-2H,7H-spiro[furo[2,3-e]isoindole-3,4′-piperidin]-7-yl)piperidine-2,6-dione] | < 50 nM | – | < 1 nM | 50 to 75% | – | – | –
16 | O=C1CC[C@H](N2Cc3c(ccc4c3OCC43CCN(C[C@@H]4COC5(C4)CN(c4ccc([C@@H]6c7ccc(O)cc7CC[C@@H]6c6ccccc6)cc4)C5)CC3)C2=O)C(=O)N1 [Compound A75, (S)-3-(1′-(((R)-2-(4-((1R,2S)-6-hydroxy-2-phenyl-1,2,3,4-tetrahydronaphthalen-1-yl)phenyl)-5-oxa-2-azaspiro[3,4]octan-7-yl)methyl)-6-oxo-6,8-dihydro-2H,7H-spiro[furo[2,3-e]isoindole-3,4′-piperidin]-7-yl)piperidine-2,6-dione] | < 50 nM | – | < 1 nM | 50 to 75% | – | – | –
17 | O=C1CC[C@H](N2Cc3c(ccc4c3OC[C@H]3CN(CCCOC5CN(c6ccc([C@@H]7c8ccc(O)cc8CC[C@@H]7c7ccccc7)cc6)C5)CCN43)C2=O)C(=O)N1 [Compound A78, (S)-3-((R)-7-(3-((1-(4-((1R,2S)-6-hydroxy-2-phenyl-1,2,3,4-tetrahydronaphthalen-1-yl)-phenyl)azetidin-3-yl)oxy)prop-yl)-1-oxo-1,3,5,5a,6,7,8,9-octa-hydro-2H-pyrazino[1′,2′:4,5] [1,4]oxazino[2,3-e]isoindol-2-yl)piperidine-2,6-dione] | < 50 nM | 50 to 75% | < 1 nM | – | – | – | –
18 | O=C1CC[C@H](N2Cc3c(ccc4c3OC[C@H]3CN(C5CN(CCOc6ccc([C@@H]7c8ccc(O)cc8CC[C@@H]7c7ccccc7)cc6)C5)CCN43)C2=O)C(=O)N1 [Compound A79, (S)-3-((R)-7-(1-(2-(4-((1R,2S)-6-hydroxy-2-phenyl-1,2,3,4-tetrahydronaphthalen-1-yl)-phenoxy)ethyl)azetidin-3-yl)-1-oxo-1,3,5,5a,6,7,8,9-octa-hydro-2H-pyrazino[1′,2′:4,5] [1,4]oxazino[2,3-e]isoindol-2-yl)piperidine-2,6-dione] | < 50 nM | 50 to 75% | < 1 nM | – | – | – | –
19 | O=C1CC[C@H](N2Cc3cc4c(cc3C2=O)OC[C@@H]2CN(C[C@@H]3COC5(CCN(c6ccc([C@@H]7c8ccc(O)cc8CC[C@@H]7c7ccccc7)cc6)CC5)C3)CCN42)C(=O)N1 [Compound B399, (S)-3-((S)-3-(((R)-8-(4-((1R,2S)-6-hydroxy-2-phenyl-1,2,3,4-tetrahydronaphthalen-1-yl)phenyl)-1-oxa-8-azaspiro[4.5]decan-3-yl)methyl)-8-oxo-1,2,3,4,4a,5,8,10-octahydro-9H-pyrazino[1′,2′:4,5][1,4]oxazino[2,3-f]isoindol-9-yl)piperidine-2,6-dione] | – | – | – | – | < 10 nM | < 1 nM | –
20 | O=C1CC[C@H](N2Cc3c(ccc4c3OCC43CCN(C[C@@H]4CCC5(CCN(c6ccc([C@@H]7c8ccc(O)cc8CC[C@@H]7c7ccccc7)cc6)CC5)OC4)CC3)C2=O)C(=O)N1 [Compound B400, (S)-3-(1′-(((S)-9-(4-((1R,2S)-6-hydroxy-2-phenyl-1,2,3,4-tetrahydronaphthalen-1-yl)phenyl)-1-oxa-9-azaspiro[5.5]undecan-3-yl)methyl)-6-oxo-6,8-dihydro-2H,7H-spiro[furo[2,3-e]isoindole-3,4′-piperidin]-7-yl)piperidine-2,6-dione] | – | – | – | – | < 10 nM | – | < 1 nM
21 | O=C1CC[C@H](N2Cc3c(ccc4c3OCC43CCN(C[C@H]4CCC5(CCN(c6ccc([C@@H]7c8ccc(O)cc8CC[C@@H]7c7ccccc7)cc6)CC5)OC4)CC3)C2=O)C(=O)N1 [Compound B401, (S)-3-(1′-(((R)-9-(4-((1R,2S)-6-hydroxy-2-phenyl-1,2,3,4-tetrahydronaphthalen-1-yl)phenyl)-1-oxa-9-azaspiro[5.5]undecan-3-yl)methyl)-6-oxo-6,8-dihydro-2H,7H-spiro[furo[2,3-e]isoindole-3,4′-piperidin]-7-yl)piperidine-2,6-dione] | – | – | – | – | < 10 nM | – | < 1 nM
